According to patent US20180153872A1, “HETEROARYL CARBONITRILES FOR THE TREATMENT OF DISEASE” (OPKO Health, Inc., priority 2015, published 2018):

Legend:
NK1 receptor = NK1 receptor (Meriones unguiculatus, UniProt Q5DUB1); test: Gerbil foot thumping (in vivo pharmacodynamic model of NK1 receptor activity); parameters: from tissue; host or cells: living gerbil (central NK1 receptors)
From the text: Intracerebroventricular administration of NK1 receptor agonists to gerbils induces vigorous thumping in the hind feet. This response can be blocked by NK1 receptor antagonists.

[1] = Pharmacokinetics/toxicokinetics and excretion in monkeys; type: in vivo, monkey; conditions: for plasma concentration-time profile: single oral dose
From the text: Urinary excretion was also substantial (approximately 20%).

Sequence of NK1 receptor (Q5DUB1 whole entry): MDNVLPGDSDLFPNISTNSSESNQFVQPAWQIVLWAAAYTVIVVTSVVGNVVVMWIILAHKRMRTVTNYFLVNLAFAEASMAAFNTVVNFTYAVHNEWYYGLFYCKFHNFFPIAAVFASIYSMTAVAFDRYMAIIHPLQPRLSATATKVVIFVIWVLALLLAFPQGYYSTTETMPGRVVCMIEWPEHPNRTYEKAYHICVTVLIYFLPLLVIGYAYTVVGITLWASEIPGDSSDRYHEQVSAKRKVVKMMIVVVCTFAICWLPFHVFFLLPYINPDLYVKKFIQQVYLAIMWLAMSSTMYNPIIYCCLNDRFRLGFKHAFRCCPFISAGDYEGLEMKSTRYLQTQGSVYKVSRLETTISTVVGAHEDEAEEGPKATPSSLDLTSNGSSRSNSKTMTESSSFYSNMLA

C[C@@H](OC[C@@]1(c2ccccc2)CC[C@](C#N)(n2cn[nH]c2=O)CN1)c1cc(C(F)(F)F)cc(C(F)(F)F)c1 [Compound 42, (3 S,6S)-6-({(1R)-1-[3,5-bis(trifluoromethyl)phenyl]ethoxy}methyl)-3-(5-oxo-1,5dihydro-4H-1,2,4-triazol-4-yl)-6-phenylpiperidine-3-carbonitrile]
duration of significant inhibition of NK1 agonist-induced foot thumping (NK1 receptor; 0.3 mg/kg oral dose): up to 48 hours
ED90, effective dose for 90% inhibition of foot thumping (NK1 receptor; oral, six hours before testing, GR 73632-induced): 0.2 mg/kg
exposure, effect of sex ([1]; monkeys): independent of sex
systemic exposure versus dose, single dose ([1]; monkeys): increased with increasing dose
plasma concentrations over 24 hours after 29th dose versus first dose ([1]; monkeys 0.5 to 30 mg/kg): greater
exposure versus dose ([1]; monkeys, once daily oral doses for one month): generally increased as the dose increased
major elimination pathway ([1]; monkeys, oral administration): excretion into the feces
plasma concentration-time profile ([1]; monkeys, listed as SCH 900978): extended absorption of SCH900978 with a long t1/2
plasma concentration-time profile ([1]; monkeys, listed as SCH900978): extended absorption of the drug and a long apparent terminal elimination phase half-life
